Data from publication PMC7912279, “Preclinical Evaluation of ^99mTc-Labeled GRPR Antagonists maSSS/SES-PEG2-RM26 for Imaging of Prostate Cancer” (Pharmaceutics, 2021).

Legend:
[1] = Octanol-water distribution coefficient (logD); format: physicochemical; settings: determined as previously described [35]
Procedure: To test the stability, the radiolabeled peptides were incubated with 300× molar excess of cysteine or with PBS at room temperature for 1 h. The octanol-water distribution coefficient (logD) was determined as previously described.

[2] = Biodistribution in NMRI mice for dosimetry estimation; format: in vivo; settings: 40 pmol (30–500 kBq)
Procedure: Dosimetry estimation: To estimate the organs’ absorbed doses after iv injection of [^99mTc]Tc-maSSS-PEG2-RM26, NMRI mice were injected with 40 pmol (30–500 kBq) of the radiolabeled peptide and biodistribution was evaluated 0.5, 1, 3, 6, and 24 h pi. Sample collection and activity measurements were done as described above. To evaluate dosimetry in humans, uptake values in mice were upscaled using the well-established “percent kg/g method” [37] (Equation (1)):(%IA/organ)human = [(%IA/g)animal × (kg TBweight)animal × (g organ/(kg TBweight)human](1) where %IA-% injected activity.

[3] = tested on: PC-3 xenografts; assay: Biodistribution in tumor bearing mice; format: in vivo; settings: BALB/c nu/nu mice bearing PC-3 xenografts; for uptake, Blood / uptake, Bone / uptake, GI (gastrointestinal tract with content) / uptake, Intestine / uptake, Kidneys / uptake, Liver / uptake, Lung / uptake, Muscle / uptake, Pancreas / uptake, Spleen / uptake, Stomach / uptake, Tumor: 40 pmol (30 kBq), gamma counter, 4-7 mice; for Tumor-to-non-tumor ratio, Blood / Tumor-to-non-tumor ratio, Bone / Tumor-to-non-tumor ratio, Intestine / Tumor-to-non-tumor ratio, Kidneys / Tumor-to-non-tumor ratio, Liver / Tumor-to-non-tumor ratio, Lung / Tumor-to-non-tumor ratio, Muscle / Tumor-to-non-tumor ratio, Pancreas / Tumor-to-non-tumor ratio, Spleen / Tumor-to-non-tumor ratio, Stomach: 40 pmol
Procedure: Animals: All in vivo experiments were carried out on BALB/c nu/nu or NMRI mice provided by Scanbur A/S (Sollentuna, Sweden). All animal studies were approved by the Ethics Committee for Animal Research in Uppsala (Sweden), following the national legislation on the protection of laboratory animals (project identification code of approval 5/16, 26 February 2016). Prostate cancer xenografts expressing GRPR were established in BALB/c nu/nu mice by subcutaneous injection of PC-3 cell suspension in PBS (7 × 10^6 cells in 100 µL) four weeks before the experiment. Four to seven mice per data point were used in in vivo experiments, two mice per data point were used in metabolic analysis and SPECT/CT imaging experiments.
Biodistribution in tumor bearing mice: The comparison of biodistribution between the two radiolabeled peptides was evaluated in BALB/c nu/nu mice bearing PC-3 xenografts. Each mouse was injected with 40 pmol (30 kBq, mass of injected peptide was adjusted with unlabeled peptide) of either [^99mTc]Tc-maSSS-PEG2-RM26 or [^99mTc]Tc-maSES-PEG2-RM26. The mice were euthanized 3 h pi. Sample collection and activity measurements were done as described above. The biodistribution of [^99mTc]Tc-maSSS-PEG2-RM26 was further studied at 6 h pi following the same protocol. Additionally for [^99mTc]Tc-maSSS-PEG2-RM26, one group of xenograft bearing mice was injected with 40 pmol (30 kBq, mass of injected peptide was adjusted with unlabeled peptide) of labeled peptide with 5 nmol of unlabeled peptide and euthanized 3 h pi.

[4] = Metabolite analysis of urine and caecum content by radio-HPLC; format: in vivo; settings: NMRI mice, 40 pmol, 3 h pi, two mice
Procedure: Metabolite Analysis: The NMRI mice were injected with 40 pmol of [^99mTc]Tc-maSSS-PEG2-RM26 (3 MBq) or [^99mTc]Tc-maSES-PEG2-RM26 (5.8 MBq). The mice were euthanized by CO2 inhalation 3 h pi, the content of the caecum and urine were collected and analyzed using HPLC as previously described. Centrifugation was performed using Centrifuge 5430 R (Eppendorf, Hamburg, Germany).

logD [1]: -0.6
uptake, Blood ([2]; 0.5 h pi): 0.7 ± 0.1 % IA/g
uptake, Body ([2]; 0.5 h pi): 4.5 ± 0.9 %IA/sample
uptake, Bone ([2]; 0.5 h pi): 0.26 ± 0.09 % IA/g
uptake, Brain ([2]; 0.5 h pi): 0.031 ± 0.008 % IA/g
uptake, Caecum ([2]; 0.5 h pi): 0.34 ± 0.09 %IA/sample
uptake, Heart ([2]; 0.5 h pi): 0.27 ± 0.10 % IA/g
uptake, Kidneys ([2]; 0.5 h pi): 2.5 ± 0.6 % IA/g
uptake, Liver ([2]; 0.5 h pi): 4 ± 1 % IA/g
uptake, Lung ([2]; 0.5 h pi): 0.7 ± 0.3 % IA/g
uptake, Muscle ([2]; 0.5 h pi): 0.13 ± 0.03 % IA/g
uptake, Pancreas ([2]; 0.5 h pi): 7 ± 2 % IA/g
uptake, Small intestine ([2]; 0.5 h pi): 10 ± 2 %IA/sample
uptake, Spleen ([2]; 0.5 h pi): 1.1 ± 0.4 % IA/g
uptake, Stomach ([2]; 0.5 h pi): 2.2 ± 0.2 %IA/sample
uptake, Upper large intestine ([2]; 0.5 h pi): 0.4 ± 0.3 %IA/sample
uptake, Body ([2]; 1 h pi): 6 ± 1 %IA/sample
uptake, Bone ([2]; 1 h pi): 0.2 ± 0.1 % IA/g
uptake, Brain ([2]; 1 h pi): 0.04 ± 0.02 % IA/g
uptake, Caecum ([2]; 1 h pi): 0.9 ± 0.2 %IA/sample
uptake, Heart ([2]; 1 h pi): 0.23 ± 0.03 % IA/g
uptake, Kidneys ([2]; 1 h pi): 4 ± 1 % IA/g
uptake, Large intestine ([2]; 1 h pi): 0.6 ± 0.1 %IA/sample
uptake, Liver ([2]; 1 h pi): 6 ± 1 % IA/g
uptake, Lung ([2]; 1 h pi): 0.9 ± 0.4 % IA/g
uptake, Pancreas ([2]; 1 h pi): 13 ± 6 % IA/g
uptake, Small intestine ([2]; 1 h pi): 44 ± 10 %IA/sample
uptake, Spleen ([2]; 1 h pi): 2.4 ± 1.6 % IA/g
uptake, Stomach ([2]; 1 h pi): 6 ± 2 %IA/sample
uptake, Blood ([2]; 3 h pi): 0.38 ± 0.06 % IA/g
uptake, Body ([2]; 3 h pi): 4 ± 2 %IA/sample
uptake, Bone ([2]; 3 h pi): 0.27 ± 0.04 % IA/g
uptake, Brain ([2]; 3 h pi): 0.03 ± 0.01 % IA/g
uptake, Caecum ([2]; 3 h pi): 16 ± 4 %IA/sample
uptake, Heart ([2]; 3 h pi): 0.12 ± 0.01 % IA/g
uptake, Kidneys ([2]; 3 h pi): 1.5 ± 0.3 % IA/g
uptake, Large intestine ([2]; 3 h pi): 3.3 ± 3.5 %IA/sample
uptake, Liver ([2]; 3 h pi): 2.5 ± 0.4 % IA/g
uptake, Lung ([2]; 3 h pi): 0.44 ± 0.07 % IA/g
uptake, Muscle ([2]; 3 h pi): 0.061 ± 0.006 % IA/g
uptake, Pancreas ([2]; 3 h pi): 3.2 ± 0.7 % IA/g
uptake, Small intestine ([2]; 3 h pi): 9 ± 3 %IA/sample
uptake, Spleen ([2]; 3 h pi): 2 ± 1 % IA/g
uptake, Stomach ([2]; 3 h pi): 5 ± 1 %IA/sample
uptake, Upper large intestine ([2]; 3 h pi): 5.2 ± 5.1 %IA/sample
uptake, Blood ([2]; 6 h pi): 0.30 ± 0.07 % IA/g
uptake, Body ([2]; 6 h pi): 2.8 ± 0.2 %IA/sample
uptake, Bone ([2]; 6 h pi): 0.18 ± 0.03 % IA/g
uptake, Brain ([2]; 6 h pi): 0.03 ± 0.01 % IA/g
uptake, Caecum ([2]; 6 h pi): 18 ± 3 %IA/sample
uptake, Heart ([2]; 6 h pi): 0.17 ± 0.08 % IA/g
uptake, Kidneys ([2]; 6 h pi): 1.3 ± 0.3 % IA/g
uptake, Large intestine ([2]; 6 h pi): 30 ± 13 %IA/sample
uptake, Liver ([2]; 6 h pi): 1.1 ± 0.3 % IA/g
uptake, Lung ([2]; 6 h pi): 0.3 ± 0.1 % IA/g
uptake, Muscle ([2]; 6 h pi): 0.05 ± 0.03 % IA/g
uptake, Small intestine ([2]; 6 h pi): 2.5 ±0.8 %IA/sample
uptake, Spleen ([2]; 6 h pi): 0.6 ± 0.5 % IA/g
uptake, Stomach ([2]; 6 h pi): 3.2 ±0.4 %IA/sample
uptake, Upper large intestine ([2]; 6 h pi): 14 ± 1 %IA/sample
uptake, Blood ([2]; 24 h pi): 0.030 ± 0.006 % IA/g
uptake, Body ([2]; 24 h pi): 0.27 ± 0.05 %IA/sample
uptake, Bone ([2]; 24 h pi): 0.04 ± 0.02 % IA/g
uptake, Brain ([2]; 24 h pi): 0.006 ± 0.004 % IA/g
uptake, Caecum ([2]; 24 h pi): 0.3 ± 0.2 %IA/sample
uptake, Heart ([2]; 24 h pi): 0.021 ± 0.003 % IA/g
uptake, Kidneys ([2]; 24 h pi): 0.46 ± 0.08 % IA/g
uptake, Large intestine ([2]; 24 h pi): 0.05 ± 0.03 %IA/sample
uptake, Liver ([2]; 24 h pi): 0.39 ± 0.05 % IA/g
uptake, Lung ([2]; 24 h pi): 0.09 ± 0.04 % IA/g
uptake, Muscle ([2]; 24 h pi): 0.006 ± 0.003 % IA/g
uptake, Pancreas ([2]; 24 h pi): 0.10 ± 0.02 % IA/g
uptake, Small intestine ([2]; 24 h pi): 0.10 ± 0.05 %IA/sample
uptake, Spleen ([2]; 24 h pi): 0.37 ± 0.09 % IA/g
uptake, Stomach ([2]; 24 h pi): 0.2 ± 0.1 %IA/sample
uptake, Upper large intestine ([2]; 24 h pi): 0.05 ± 0.01 %IA/sample
uptake, Blood ([3]; 3 h pi): 0.09 ± 0.04 % IA/g
uptake, Bone ([3]; 3 h pi): 0.04 ± 0.02 % IA/g
uptake, GI (gastrointestinal tract with content) ([3]; 3 h pi): 56 ± 3 % IA
uptake, Intestine ([3]; 3 h pi): 3 ± 1 % IA/g
uptake, Kidneys ([3]; 3 h pi): 0.7 ± 0.4 % IA/g
uptake, Liver ([3]; 3 h pi): 3 ± 1 % IA/g
uptake, Lung ([3]; 3 h pi): 0.12 ± 0.03 % IA/g
uptake, Muscle ([3]; 3 h pi): 0.04 ± 0.02 % IA/g
uptake, Pancreas ([3]; 3 h pi): 6.1 ± 0.8 % IA/g
uptake, Spleen ([3]; 3 h pi): 0.12 ± 0.04 % IA/g
uptake, Stomach ([3]; 3 h pi): 1.4 ± 0.3 % IA/g
uptake, Tumor ([3]; 3 h pi): 7 ± 2 % IA/g
uptake, Blood ([3]; 6 h pi): 0.056 ± 0.009 % IA/g
uptake, Bone ([3]; 6 h pi): 0.02 ± 0.02 % IA/g
uptake, GI (gastrointestinal tract with content) ([3]; 6 h pi): 26 ± 6 % IA
uptake, Intestine ([3]; 6 h pi): 0.4 ± 0.2 % IA/g
uptake, Kidneys ([3]; 6 h pi): 0.59 ± 0.06 % IA/g
uptake, Liver ([3]; 6 h pi): 0.68 ± 0.08 % IA/g
uptake, Lung ([3]; 6 h pi): 0.20 ± 0.10 % IA/g
uptake, Muscle ([3]; 6 h pi): 0.012 ± 0.004 % IA/g
uptake, Pancreas ([3]; 6 h pi): 0.98 ± 0.08 % IA/g
uptake, Spleen ([3]; 6 h pi): 0.06 ± 0.01 % IA/g
uptake, Stomach ([3]; 6 h pi): 0.9 ± 0.2 % IA/g
uptake, Tumor ([3]; 6 h pi): 3 ± 1 % IA/g
Tumor-to-non-tumor ratio, Blood ([3]; 3 h pi): 97 ± 56
Tumor-to-non-tumor ratio, Bone ([3]; 3 h pi): 177 ± 79
Tumor-to-non-tumor ratio, Intestine ([3]; 3 h pi): 3 ± 1
Tumor-to-non-tumor ratio, Kidneys ([3]; 3 h pi): 14 ± 9
Tumor-to-non-tumor ratio, Liver ([3]; 3 h pi): 3 ± 2
Tumor-to-non-tumor ratio, Lung ([3]; 3 h pi): 65 ± 20
Tumor-to-non-tumor ratio, Muscle ([3]; 3 h pi): 188 ± 32
Tumor-to-non-tumor ratio, Pancreas ([3]; 3 h pi): 1.2 ± 0.4
Tumor-to-non-tumor ratio, Spleen ([3]; 3 h pi): 62 ± 14
Tumor-to-non-tumor ratio, Stomach ([3]; 3 h pi): 5 ± 2
Tumor-to-non-tumor ratio, Blood ([3]; 6 h pi): 57 ± 22
Tumor-to-non-tumor ratio, Bone ([3]; 6 h pi): 287 ± 232
Tumor-to-non-tumor ratio, Intestine ([3]; 6 h pi): 9 ± 4
Tumor-to-non-tumor ratio, Kidneys ([3]; 6 h pi): 5 ± 2
Tumor-to-non-tumor ratio, Liver ([3]; 6 h pi): 5 ± 2
Tumor-to-non-tumor ratio, Lung ([3]; 6 h pi): 18 ± 8
Tumor-to-non-tumor ratio, Muscle ([3]; 6 h pi): 270 ± 67
Tumor-to-non-tumor ratio, Pancreas ([3]; 6 h pi): 3 ± 1
Tumor-to-non-tumor ratio, Spleen ([3]; 6 h pi): 50 ± 16
Tumor-to-non-tumor ratio, Stomach ([3]; 6 h pi): 3 ± 1
intact radiolabeled peptide in urine and gastrointestinal (caecum) content [4]: no intact radiolabeled peptide
SMILES: CC(C)C[C@H](NC(=O)C[C@H](O)[C@H](CC(C)C)NC(=O)[C@H](Cc1c[nH]cn1)NC(=O)CNC(=O)[C@@H](NC(=O)[C@H](C)NC(=O)[C@H](Cc1c[nH]c2ccccc12)NC(=O)[C@H](CCC(N)=O)NC(=O)[C@@H](Cc1ccccc1)NC(=O)COCCOCCNC(=O)[C@H](CO)NC(=O)[C@H](CO)NC(=O)[C@H](CO)NC(=O)CS)C(C)C)C(N)=O [[^99mTc]Tc-maSSS-PEG2-RM26, metal not drawn]
